Structures are written as SMILES.

The target of this assay is Mitogen-activated protein kinase 1 (Homo sapiens) (UniProt P28482). The experiment in a line: phospho-ERK1/2 protein level change, either direction, late-stage follow-up, counter-screen for KLF5 inhibitor project, DLD1 cells, chemiluminescent western blot, powder samples (AID 588612). Particulars: DLD-1 cells, p-ERK1/2 western blot, 24 h; at 10 µM. (In general: Counterscreens check selectivity or assay interference.)
Chain of Mitogen-activated protein kinase 1 (Homo sapiens) (P28482 whole entry, looked up): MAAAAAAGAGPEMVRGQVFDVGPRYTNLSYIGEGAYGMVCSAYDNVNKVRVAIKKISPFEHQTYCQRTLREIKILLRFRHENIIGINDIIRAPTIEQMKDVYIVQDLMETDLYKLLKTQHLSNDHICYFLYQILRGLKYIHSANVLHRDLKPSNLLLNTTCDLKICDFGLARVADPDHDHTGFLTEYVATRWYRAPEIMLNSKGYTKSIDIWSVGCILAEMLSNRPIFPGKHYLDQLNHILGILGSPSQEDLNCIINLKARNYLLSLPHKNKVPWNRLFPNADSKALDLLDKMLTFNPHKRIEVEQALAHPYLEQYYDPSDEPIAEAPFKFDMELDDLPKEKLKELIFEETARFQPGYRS

Turning to `CN(C(=O)CNC(=O)/C=C/c1cccc(Cl)c1)C1CCS(=O)(=O)C1` (stereo not drawn), the fold change was 9.88.
Regarding `CN(C(=O)CNC(=O)/C=C/c1cccc(Cl)c1)C1CCS(=O)(=O)CC1`, the fold change is 9.41.
For `CN(C(=O)COC(=O)/C=C/c1cccc([N+](=O)[O-])c1)C1CCS(=O)(=O)C1` (stereo not drawn) the value was 11.

Source of the values: PubChem BioAssay AID588612 (The Scripps Research Institute Molecular Screening Center, 2011).
